Values of other authors as cited in article PMC11187573, “Identification of SARS-CoV-2 Mpro inhibitors through deep reinforcement learning for de novo drug design and computational chemistry approaches” (RSC Medicinal Chemistry, 2024).
Where two headings read alike, the source gives them in different places.

Assays:
[1] = tested on: Mpro; details: ML dataset, cited from earlier work
[2] = tested on: SARS, SARS-CoV-2 and MERS Mpro; details: cited from earlier work
[3] = Origin COVID_Moonshot, ref COVID Moonshot

Row | Molecule | IC50 [1, 3] | IC50 [2, 3] | IC50 ([1]; Origin ChEMBL, ref ChEMBL) | IC50 ([2]; Origin ChEMBL, ref ChEMBL)
1 | C[C@@H]1C[C@@H](C(=O)Nc2cncc3ccccc23)c2cc(Cl)ccc2O1 [EDJ-MED-e4b030d8-2, C[C@H](C[C@H]1C(Nc2cncc3ccccc23)=O)Oc(cc2)c1cc2Cl, reference compound] | 0.378 µM | 0.231 µM | – | –
2 | O=C(Cc1cncc2ccccc12)N(CCC1CCCCC1)c1cccc(Cl)c1 [MAT-POS-173a45da-1, O=C(Cc1cncc2ccccc12)N(CCC1CCCCC1)c1cccc(Cl)c1, reference compound] | 1.57 µM | 2.11 µM | – | –
3 | N#Cc1ccc(CN2CCC(C3CCNC3)CC2)cc1 (stereo not shown) [LON-WEI-4d77710c-32, N#Cc1ccc(CN(CC2)CCC2C2CNCC2)cc1, reference compound] | 1.71 µM | 2.06 µM | – | –
4 | Cc1c(-c2cnccn2)ssc1=S [CHEMBL178459, CC1=C(c2nccnc2)SSC1=S, reference compound] | – | – | 0.415 µM | 0.415 µM
5 | O=C(O)[C@@H](c1ccccc1)N1Cc2ccccc2C1=O [LON-WEI-4d77710c-19, OC([C@@H](c1ccccc1)N(Cc1c2cccc1)C2=O)=O, reference compound] | 1.47 µM | 1.78 µM | – | –
6 | c1ccc2sc(SNC3CCCCC3)nc2c1 [CHEMBL1591074, C(CC1)CCC1NSc1nc(cccc2)c2s1, reference compound] | – | – | 0.77 µM | 0.77 µM
7 | CN1CC[C@@]2(C)c3cc(O)ccc3N(C)[C@@H]12 [CHEMBL1256915, C[C@]12c(cc(cc3)O)c3N(C)[C@H]1N(C)CC2, reference compound] | – | – | 1.99 µM | 1.99 µM
8 | CC(C)(C)c1ccc(N(C(=O)c2ccc(Cl)o2)C(C(=O)NCCc2cccc(F)c2)c2cccnc2)cc1 (stereo not shown) [MAT-POS-f2460aef-4, CC(C)(C)c(cc1)ccc1N(C(C(NCCc1cc(F)ccc1)=O)c1cnccc1)C(c(o1)ccc1Cl)=O, reference compound] | 0.415 µM | 0.315 µM | – | –
9 | O=C(c1cncc2ccccc12)N1CCN(c2cccc(Cl)c2)CC1 [MAT-POS-54c4bf04-3, O=C(c1cncc2ccccc12)N(CC1)CCN1c1cccc(Cl)c1, reference compound] | 1.22 µM | 1.6 µM | – | –
10 | COC(=O)c1c(C)n(S(C)(=O)=O)c2ccc(N(C(=O)c3ccco3)S(C)(=O)=O)cc12 [LON-WEI-4d77710c-11, Cc1c(C(OC)=O)c(cc(cc2)N(C(c3ccco3)=O)S(C)(=O)=O)c2n1S(C)(=O)=O, reference compound] | 0.635 µM | 0.935 µM | – | –
11 | CN(C)c1ccc(N(Cc2cccc(Cl)c2)C(=O)Cn2nnc3ccccc32)cc1 [ALP-POS-6d04362c-2, CN(C)c(cc1)ccc1N(Cc1cccc(Cl)c1)C(Cn1nnc2c1cccc2)=O, reference compound] | 0.444 µM | 0.497 µM | – | –
12 | CC(C)(C)c1ccc(N(C(=O)c2c[nH]cn2)C(C(=O)NCCc2cccc(F)c2)c2cccnc2)cc1 (stereo not shown) [MAT-POS-f2460aef-3, CC(C)(C)c(cc1)ccc1N(C(C(NCCc1cccc(F)c1)=O)c1cnccc1)C(c1c[nH]cn1)=O, reference compound] | 0.671 µM | 0.292 µM | – | –
13 | CC(CN1CC(=O)NC(=O)C1)N1CC(=O)NC(=O)C1 (stereo not shown) [CHEMBL444186, CC(CN(CC(N1)=O)CC1=O)N(CC(N1)=O)CC1=O, reference compound] | – | – | 3.19 µM | 3.19 µM
14 | O=C1OC(c2cccs2)=N/C1=C\c1ccc(N2CCOCC2)s1 [MAT-POS-fa06b69f-6] | 0.701 µM | 0.696 µM | – | –
15 | COc1cccc2[nH]c(=O)cc(C(=O)N3CCN(c4cccc(Cl)c4)CC3)c12 [MAT-POS-3b536971-2, COc(cccc1N2)c1C(C(N(CC1)CCN1c1cccc(Cl)c1)=O)=CC2=O, reference compound] | 3.26 µM | 4.68 µM | – | –
16 | O=c1oc(Nc2ccccc2)nc2ccccc12 [MAT-POS-ea426761-13, O=C1OC(Nc2ccccc2)=Nc2c1cccc2, reference compound] | 0.966 µM | 1.57 µM | – | –
17 | COc1nc2ccc(Br)cc2cc1[C@@H](c1ccccc1)[C@@](O)(CCN(C)C)c1cccc2ccccc12 [CHEMBL376488, CN(C)CC[C@]([C@H](c1ccccc1)c(cc(cc(cc1)Br)c1n1)c1OC)(c1cccc2ccccc12)O, reference compound] | – | – | 4.36 µM | 4.36 µM
18 | COc1cc(C(=S)N2CCOCC2)ccc1O [CHEMBL1380480, COc(cc(cc1)C(N2CCOCC2)=S)c1O, reference compound] | – | – | 1.32 µM | 1.32 µM
19 | CC(C)c1cc(CNc2nc(Nc3cc(C4CC4)[nH]n3)cc(N3CCN(C)CC3)n2)on1 [CHEMBL3545085, CC(C)c1noc(CNc2nc(N3CCN(C)CC3)cc(Nc3n[nH]c(C4CC4)c3)n2)c1, reference compound] | – | – | 1.49 µM | 1.49 µM
20 | Nc1ccc(O)c2ncccc12 [CHEMBL449298, Nc(c1cccnc11)ccc1O, reference compound] | – | – | 2.05 µM | 2.05 µM
21 | Cc1cc(C)c(C#N)c(Sc2ncnc3c2nnn3Cc2ccccc2)n1 [LON-WEI-4d77710c-73, Cc(cc(C)nc1Sc2ncnc3c2nnn3Cc2ccccc2)c1C#N, reference compound] | 0.452 µM | 0.649 µM | – | –
22 | CN(C)CCNc1nc2cc(O)ccc2c2c1C(=O)c1ccccc1-2 [CHEMBL488755, CN(C)CCNc1nc2cc(O)ccc2c(-c2c3cccc2)c1C3=O] | – | – | – | 2.99 µM
23 | O=C(Nc1cncc2ccccc12)C1CCCc2ccc(Cl)cc21 (stereo not shown) [ALP-POS-477dc5b7-1, O=C(C(CCC1)c2c1ccc(Cl)c2)Nc1cncc2ccccc12, reference compound] | 0.307 µM | 0.324 µM | – | –
24 | O=C(/C=C/c1ccc(O)c(O)c1)O[C@H](Cc1ccc(O)c(O)c1)C(=O)O [CHEMBL324842, OC([C@@H](Cc(cc1)cc(O)c1O)OC(/C=C/c(cc1)cc(O)c1O)=O)=O] | – | – | – | 3.86 µM

Row | Molecule | IC50 [1, 3] | IC50 [2, 3] | IC50 ([1]; Origin ChEMBL, ref ChEMBL) | IC50 ([2]; Origin ChEMBL, ref ChEMBL)
25 | O=c1sn(-c2cccc3ccccc23)c(=O)n1Cc1ccccc1 [CHEMBL3545157, O=C(N1Cc2ccccc2)N(c2cccc3ccccc23)SC1=O, reference compound] | – | – | 0.115 µM | 0.115 µM
26 | CC(C)(C)OC(=O)NCCc1nnc(S(=O)(=O)Cc2ccc(Cl)cc2Cl)o1 [CHEMBL259018, CC(C)(C)OC(NCCc(o1)nnc1S(Cc(ccc(Cl)c1)c1Cl)(=O)=O)=O] | – | – | – | 4.22 µM
27 | O=C(Oc1ccc(S(=O)(=O)c2ccc(OC(=O)C(Cl)=C(Cl)Cl)cc2)cc1)C(Cl)=C(Cl)Cl [CHEMBL212454, O=C(C(Cl)=C(Cl)Cl)Oc(cc1)ccc1S(c(cc1)ccc1OC(C(Cl)=C(Cl)Cl)=O)(=O)=O] | – | – | – | 0.9 µM
28 | O=C(CCl)N1CCN(Cc2ccsc2)CC1 [LON-WEI-8f408cad-7, O=C(CCl)N1CCN(Cc2cscc2)CC1] | – | 3.5 µM | – | –
29 | CCOC(=O)c1cc(-c2ccccc2)sc1NC(=O)Cc1csc(-c2ccccc2)n1 [LON-WEI-4d77710c-24, CCOC(c1c(NC(Cc2csc(-c3ccccc3)n2)=O)sc(-c2ccccc2)c1)=O, reference compound] | 3.67 µM | 4.66 µM | – | –
30 | O=C(Nc1cncc2ccccc12)N(CCC1CCCCC1)c1cccc(Cl)c1 [EDJ-MED-c314995a-1, O=C(Nc1cncc2ccccc12)N(CCC1CCCCC1)c1cccc(Cl)c1, reference compound] | 0.621 µM | 0.261 µM | – | –
31 | C[C@@H]1O[C@@H](Oc2c(-c3cc(O)c(O)c(O)c3)oc3cc(O)cc(O)c3c2=O)[C@@H](O)[C@H](O)[C@H]1O [CHEMBL4303331, C[C@@H]([C@@H]([C@H]([C@@H]1O)O)O)O[C@H]1OC1=C(c(cc2O)cc(O)c2O)Oc(cc(cc2O)O)c2C1=O] | – | – | – | 3.66 µM
32 | O=C(Cc1cc(Cl)cc(Oc2cccnc2)c1)Nc1cncc2ccccc12 [MAT-POS-9ff17035-3, O=C(Cc1cc(Cl)cc(Oc2cnccc2)c1)Nc1cncc2ccccc12, reference compound] | 1.41 µM | 1.34 µM | – | –
33 | CC=C1C(OC2OC(CO)C(O)C(O)C2O)OC=C(C(=O)OC)C1CC(=O)OCCc1ccc(O)c(O)c1 (stereo not shown) [CHEMBL4303154, CC=C(C1CC(OCCc(cc2)cc(O)c2O)=O)C(OC(C(C2O)O)OC(CO)C2O)OC=C1C(OC)=O] | – | – | – | 3.38 µM
34 | Cc1cccc(C2CN(C(=O)CCl)Cc3ccccc32)c1 (stereo not shown) [NIR-THE-c331be7a-6, Cc1cccc(C(CN(C2)C(CCl)=O)c3c2cccc3)c1] | – | 2 µM | – | –
35 | O=C(NCc1ccc2c(c1)OCO2)c1nc(S(=O)(=O)Cc2ccccc2)ncc1Cl [LON-WEI-4d77710c-10, O=C(c(nc(nc1)S(Cc2ccccc2)(=O)=O)c1Cl)NCc(cc1)cc2c1OCO2] | – | 1.4 µM | – | –
36 | O=C1C2CC=CCC2C(=O)N1SC(Cl)(Cl)Cl (stereo not shown) [CHEMBL388676, O=C(C(CC=CC1)C1C1=O)N1SC(Cl)(Cl)Cl] | – | – | – | 0.67 µM
37 | CCOC(=O)c1ccc(NC(=O)CC2SC(=O)N(c3ccccc3)C2=O)cc1 (stereo not shown) [LON-WEI-4d77710c-74, CCOC(c(cc1)ccc1NC(CC(C(N1c2ccccc2)=O)SC1=O)=O)=O] | – | 2.4 µM | – | –
38 | O=c1cc(-c2ccc(O)cc2)oc2cc(O)cc(O)c12 [CHEMBL28, Oc(cc1)ccc1C(Oc1c2c(O)cc(O)c1)=CC2=O] | – | – | – | 3.02 µM
39 | O=c1c(O)cccc2cc(O)c(O)c(O)c12 [CHEMBL66953, Oc(cc(C=CC=C(C1=O)O)c1c1O)c1O] | – | – | – | 4.58 µM
40 | O=C1C(=O)N(Cc2cc3ccccc3s2)c2c(Br)cccc21 [CHEMBL365134, O=C(c1cccc(Br)c1N1Cc2cc(cccc3)c3s2)C1=O] | – | – | – | 0.98 µM
41 | N#CSc1cc(SC#N)c(N)nc1N [CHEMBL4303622, Nc(c(SC#N)c1)nc(N)c1SC#N] | – | – | – | 1.35 µM
42 | CCOC(=O)c1c(N)sc(-c2ccccc2)c1C [CHEMBL566136, CCOC(c1c(N)sc(-c2ccccc2)c1C)=O] | – | – | – | 3.19 µM
43 | Oc1ccc2ccccc2c1SSc1c(O)ccc2ccccc12 [CHEMBL472940, Oc(ccc1ccccc11)c1SSc(c1ccccc1cc1)c1O] | – | – | – | 0.51 µM
44 | CCc1ccc(/C=C/C(=O)Nc2ccc(C(C)=O)cc2)o1 [CHEMBL4303618, CCc1ccc(/C=C/C(Nc(cc2)ccc2C(C)=O)=O)o1] | – | – | – | 4.95 µM
45 | COCCc1ccc(Cl)cc1CN1CCN(C(=O)CCl)CC1 [MED-COV-4280ac29-37, COCCc(cc1)c(CN(CC2)CCN2C(CCl)=O)cc1Cl] | – | 2.2 µM | – | –
46 | Oc1cc(CNC(=S)/C=C/c2cc(O)c(O)c(Br)c2)cc(O)c1O [CHEMBL4303361, Oc1cc(CNC(/C=C/c(cc2O)cc(Br)c2O)=S)cc(O)c1O] | – | – | – | 0.48 µM
47 | COc1ccc2c(c1)CN(C(=O)CCl)C(c1ccccc1)C2 (stereo not shown) [NAU-LAT-64f4b287-4, COc1cc(CN(C(C2)c3ccccc3)C(CCl)=O)c2cc1] | – | 3.74 µM | – | –
